Results published in ChEMBL document CHEMBL4825673, “Total and Semisyntheses of Polymyxin Analogues with 2-Thr or 10-Thr Modifications to Decipher the Structure-Activity Relationship and Improve the Antibacterial Activity” (J Med Chem, 2021).
In brackets after ≈: the same amount, converted by molar mass. Starred links: 1 amine or outer side, 2 acyl side, 3 side chain; linkers in the order of their positions; H or OH if unused. Positions of bridges follow the written chain, without caps; N, C: chain ends. Non-standard residues stand in square brackets, D forms with d. Residues, ends and D or L forms follow the SMILES beside them. *: point of attachment. Benzoyl(4-OPh) = O=C(c1ccc(Oc2ccccc2)cc1)*; Heptanoyl(6-Me) = CC(C)CCCCC(=O)*; NH(2-ClPh) = Clc1ccccc1N*; X1 = CC[C@H](C)CCCCC(=O)*; Dab = NCC[C@H](N)C(=O)O; CO = O=C([*:1])[*:2]

Key:
Format in all cases: functional
Conditions in all cases: read-out: MIC100
Pseudomonas aeruginosa [1] = test: Antibacterial activity against Pseudomonas aeruginosa PAO1 assessed as inhibition of bacterial growth incubated for 24 hrs by broth microdilution method
Escherichia coli = test: Antibacterial activity against Escherichia coli assessed as inhibition of bacterial growth incubated for 24 hrs by broth microdilution method
Klebsiella pneumoniae = test: Antibacterial activity against Klebsiella pneumoniae assessed as inhibition of bacterial growth incubated for 24 hrs by broth microdilution method
Acinetobacter baumannii = test: Antibacterial activity against Acinetobacter baumannii assessed as inhibition of bacterial growth incubated for 24 hrs by broth microdilution method
Pseudomonas aeruginosa [2] = test: Antibacterial activity against Pseudomonas aeruginosa assessed as inhibition of bacterial growth incubated for 24 hrs by broth microdilution method
Moraxella catarrhalis = test: Antibacterial activity against Moraxella catarrhalis assessed as inhibition of bacterial growth incubated for 24 hrs by broth microdilution method

SMILES | MIC (Pseudomonas aeruginosa [1]) [µg/mL] | MIC (Escherichia coli) [µg/mL] | MIC (Klebsiella pneumoniae) [µg/mL] | MIC (Acinetobacter baumannii) [µg/mL] | MIC (Pseudomonas aeruginosa [2]) [µg/mL] | MIC (Moraxella catarrhalis) [µg/mL]
CCCCCCCC(=O)N[C@@H](CCN)C(=O)N[C@@H](CCSC)C(=O)N[C@@H](CCN)C(=O)N[C@H]1CCNC(=O)[C@H]([C@@H](C)O)NC(=O)[C@H](CCN)NC(=O)[C@H](CCN)NC(=O)[C@H](CC(C)C)NC(=O)[C@@H](Cc2ccccc2)NC(=O)[C@H](CCN)NC1=O | 2 (≈ 1.64 µM) | 4 (≈ 3.28 µM) | > 64 | 2 (≈ 1.64 µM) | 0.125 (≈ 0.102 µM) | 8 (≈ 6.56 µM)
CC(C)CCCCC(=O)N[C@@H](CCN)C(=O)N[C@H](C(=O)N[C@@H](CCN)C(=O)N[C@H]1CCNC(=O)[C@H]([C@@H](C)O)NC(=O)[C@H](CCN)NC(=O)[C@H](CCN)NC(=O)[C@H](CC(C)C)NC(=O)[C@@H](Cc2ccccc2)NC(=O)[C@H](CCN)NC1=O)[C@@H](C)OC(=O)[C@@H](N)CC(N)=O | 1 (≈ 0.767 µM) |  |  |  |  | 
CC(C)CCCCC(=O)N[C@@H](CCN)C(=O)N[C@H](C(=O)N[C@@H](CCN)C(=O)N[C@H]1CCNC(=O)[C@H]([C@@H](C)O)NC(=O)[C@H](CCN)NC(=O)[C@H](CCN)NC(=O)[C@H](CC(C)C)NC(=O)[C@@H](Cc2ccccc2)NC(=O)[C@H](CCN)NC1=O)C(C)C | 4 (≈ 3.37 µM) | 8 (≈ 6.74 µM) | > 16 | 16 (≈ 13.5 µM) | 0.5 (≈ 0.421 µM) | 8 (≈ 6.74 µM)
CC(=O)O[C@H](C)[C@H](NC(=O)[C@H](CCN)NC(=O)CCCCC(C)C)C(=O)N[C@@H](CCN)C(=O)N[C@H]1CCNC(=O)[C@H]([C@@H](C)O)NC(=O)[C@H](CCN)NC(=O)[C@H](CCN)NC(=O)[C@H](CC(C)C)NC(=O)[C@@H](Cc2ccccc2)NC(=O)[C@H](CCN)NC1=O | 16 (≈ 13 µM) | 4 (≈ 3.25 µM) | > 32 | 8 (≈ 6.5 µM) | 0.5 (≈ 0.406 µM) | 16 (≈ 13 µM)
CC(C)CCCCC(=O)N[C@@H](CCN)C(=O)N[C@@H](Cc1ccccc1)C(=O)N[C@@H](CCN)C(=O)N[C@H]1CCNC(=O)[C@H]([C@@H](C)O)NC(=O)[C@H](CCN)NC(=O)[C@H](CCN)NC(=O)[C@H](CC(C)C)NC(=O)[C@@H](Cc2ccccc2)NC(=O)[C@H](CCN)NC1=O | 4 (≈ 3.24 µM) | 4 (≈ 3.24 µM) | > 32 | 16 (≈ 12.9 µM) | 0.5 (≈ 0.405 µM) | 4 (≈ 3.24 µM)
CC[C@H](C)CCCCC(=O)N[C@@H](CCN)C(=O)N[C@H](C(=O)N[C@@H](CCN)C(=O)N[C@H]1CCNC(=O)[C@H]([C@@H](C)O)NC(=O)[C@H](CCN)NC(=O)[C@H](CCN)NC(=O)[C@H](CC(C)C)NC(=O)[C@@H](Cc2ccccc2)NC(=O)[C@H](CCN)NC1=O)[C@@H](C)OC(=O)[C@@H](N)CCSC | 2 (≈ 1.5 µM) |  |  |  |  | 
CC(C)CCCCC(=O)N[C@@H](CCN)C(=O)N[C@H](C(=O)N[C@@H](CCN)C(=O)N[C@H]1CCNC(=O)[C@H]([C@@H](C)O)NC(=O)[C@H](CCN)NC(=O)[C@H](CCN)NC(=O)[C@H](CC(C)C)NC(=O)[C@@H](Cc2ccccc2)NC(=O)[C@H](CCN)NC1=O)[C@H](C)OC(=O)[C@@H](N)CCC(=O)O | 2 (≈ 1.52 µM) |  |  |  |  | 
CC[C@H](C)CCCCC(=O)N[C@@H](CCN)C(=O)N[C@H](C(=O)N[C@@H](CCN)C(=O)N[C@H]1CCNC(=O)[C@H]([C@@H](C)O)NC(=O)[C@H](CCN)NC(=O)[C@H](CCN)NC(=O)[C@H](CC(C)C)NC(=O)[C@@H](Cc2ccccc2)NC(=O)[C@H](CCN)NC1=O)[C@@H](C)OC(=O)[C@@H](N)CCCNC(=N)N | 2 (≈ 1.47 µM) |  |  |  |  | 
CC[C@H](C)CCCCC(=O)N[C@@H](CCN)C(=O)N[C@H](C(=O)N[C@@H](CCN)C(=O)N[C@H]1CCNC(=O)[C@H]([C@@H](C)O)NC(=O)[C@H](CCN)NC(=O)[C@H](CCN)NC(=O)[C@H](CC(C)C)NC(=O)[C@@H](Cc2ccccc2)NC(=O)[C@H](CCN)NC1=O)[C@@H](C)OC(=O)[C@@H](N)CCCCN | 2 (≈ 1.5 µM) |  |  |  |  | 
CC[C@H](C)CCCCC(=O)N[C@@H](CCN)C(=O)N[C@H](C(=O)N[C@@H](CCN)C(=O)N[C@H]1CCNC(=O)[C@H]([C@@H](C)O)NC(=O)[C@H](CCN)NC(=O)[C@H](CCN)NC(=O)[C@H](CC(C)C)NC(=O)[C@@H](Cc2ccccc2)NC(=O)[C@H](CCN)NC1=O)[C@@H](C)OC(=O)[C@@H](N)CC(N)=O | 2 (≈ 1.52 µM) |  |  |  |  | 
CC(C)CCCCC(=O)N[C@@H](CCN)C(=O)N[C@@H](CC(C)C)C(=O)N[C@@H](CCN)C(=O)N[C@H]1CCNC(=O)[C@H]([C@@H](C)O)NC(=O)[C@H](CCN)NC(=O)[C@H](CCN)NC(=O)[C@H](CC(C)C)NC(=O)[C@@H](Cc2ccccc2)NC(=O)[C@H](CCN)NC1=O | 2 (≈ 1.66 µM) | 1 (≈ 0.832 µM) | 1 (≈ 0.832 µM) | 2 (≈ 1.66 µM) | 0.25 (≈ 0.208 µM) | 8 (≈ 6.66 µM)
CC(C)CCCCC(=O)N[C@@H](CCN)C(=O)N[C@H](C(=O)N[C@@H](CCN)C(=O)N[C@H]1CCNC(=O)[C@H]([C@@H](C)O)NC(=O)[C@H](CCN)NC(=O)[C@H](CCN)NC(=O)[C@H](CC(C)C)NC(=O)[C@@H](Cc2ccccc2)NC(=O)[C@H](CCN)NC1=O)[C@@H](C)OC(=O)[C@@H](N)CC(=O)O | 2 (≈ 1.53 µM) |  |  |  |  | 
CC[C@H](C)CCCCC(=O)N[C@@H](CCN)C(=O)N[C@H](C(=O)N[C@@H](CCN)C(=O)N[C@H]1CCNC(=O)[C@H]([C@@H](C)O)NC(=O)[C@H](CCN)NC(=O)[C@H](CCN)NC(=O)[C@H](CC(C)C)NC(=O)[C@@H](Cc2ccccc2)NC(=O)[C@H](CCN)NC1=O)[C@@H](C)OC(=O)[C@@H](N)CCC(=O)O | 1 (≈ 0.75 µM) |  |  |  |  | 
CC(C)C[C@@H]1NC(=O)[C@@H](Cc2ccccc2)NC(=O)[C@H](CCN)NC(=O)[C@@H](NC(=O)[C@H](CCN)NC(=O)[C@@H](NC(=O)[C@H](CCN)NC(=O)CCCCCCCN)[C@@H](C)O)CCNC(=O)[C@H]([C@@H](C)O)NC(=O)[C@H](CCN)NC(=O)[C@H](CCN)NC1=O | 1 (≈ 0.83 µM) | 8 (≈ 6.64 µM) | > 32 | 2 (≈ 1.66 µM) | 0.125 (≈ 0.104 µM) | > 32
CC[C@H](C)CCCCC(=O)N[C@@H](CCN)C(=O)N[C@H](C(=O)N[C@@H](CCN)C(=O)N[C@H]1CCNC(=O)[C@H]([C@@H](C)O)NC(=O)[C@H](CCN)NC(=O)[C@H](CCN)NC(=O)[C@H](CC(C)C)NC(=O)[C@@H](Cc2ccccc2)NC(=O)[C@H](CCN)NC1=O)[C@@H](C)O (X1-[Dab]T[Dab][Dab][Dab][dF]L[Dab][Dab]T; lactam 4-C) | 2 (≈ 1.66 µM) |  |  |  |  | 
CC(C)C[C@@H]1NC(=O)[C@@H](Cc2ccccc2)NC(=O)[C@H](CCN)NC(=O)[C@@H](NC(=O)[C@H](CCN)NC(=O)[C@@H](NC(=O)[C@H](CCN)NC(=O)c2ccc(Oc3ccccc3)cc2)[C@@H](C)O)CCNC(=O)[C@H]([C@@H](C)O)NC(=O)[C@H](CCN)NC(=O)[C@H](CCN)NC1=O ({Benzoyl(4-OPh)}-[Dab]T[Dab][Dab][Dab][dF]L[Dab][Dab]T; lactam 4-C) | 4 (≈ 3.18 µM) |  |  |  |  | 
CC(C)C[C@@H]1NC(=O)[C@@H](Cc2ccccc2)NC(=O)[C@H](CCN)NC(=O)[C@@H](NC(=O)[C@H](CCN)NC(=O)[C@@H](NC(=O)[C@H](CCN)NC(=O)Nc2ccccc2Cl)[C@@H](C)O)CCNC(=O)[C@H]([C@@H](C)O)NC(=O)[C@H](CCN)NC(=O)[C@H](CCN)NC1=O ({NH(2-ClPh)-CO}-[Dab]T[Dab][Dab][Dab][dF]L[Dab][Dab]T; lactam 4-C) | 4 (≈ 3.29 µM) |  |  |  |  | 
CC(C)CCCCC(=O)N[C@@H](CCN)C(=O)N[C@H](C(=O)N[C@@H](CCN)C(=O)N[C@H]1CCNC(=O)[C@H]([C@@H](C)O)NC(=O)[C@H](CCN)NC(=O)[C@H](CCN)NC(=O)[C@H](CC(C)C)NC(=O)[C@@H](Cc2ccccc2)NC(=O)[C@H](CCN)NC1=O)[C@@H](C)O [POLYMYXIN B2] ({Heptanoyl(6-Me)}-[Dab]T[Dab][Dab][Dab][dF]L[Dab][Dab]T; lactam 4-C) | 1 (≈ 0.841 µM) |  |  |  |  | 
